According to patent US12290565B2, “Methods of using anti-PSGL-1 antibodies in combination with JAK inhibitors to treat T-cell mediated inflammatory diseases or cancers” (AltruBio Inc., priority 2021, dated 2025):
Read-outs that look alike come from different tables or passages of the source.

How the values were obtained:
[1] = system: xenogeneic GvHD in ASID mice engrafted with human PBMCs; assay: Xenogeneic graft-versus-host disease (GvHD) mouse model, survival; type: in vivo; settings: ruxolitinib 45 mg/kg oral twice daily 15 days and/or 15A7H 10 mg/kg i.v. every 3 to 4 days, 5 doses
Description: 8-9 weeks old female Advanced Severe Immuno-Deficiency (ASID) mice (NOD.Cg-Prkdc^scidIl2rg^tm1Wjl/YckNarl; NLAC NARLabs Taiwan) received a total body irradiation dose of 2.0 Gy and were engrafted with 3×10^6 human PBMCs by tail vein injection at 24 hours post irradiation. The mice were kept under pathogen-free conditions and reared under standardized methods as temperature set at 22±1° C. with a 12-hour daylight/dark cycle and full access to food and water. Experimental animals were randomly divided into treatment groups after receiving a minimum of 3 days of acclimatization to the environment.
Xenogeneic GvHD (xGvHD) was induced in ASID mice receiving 3×10^6 human PBMCs (n=5-7 per group). Post 72 hours of human PBMC engraftment, ruxolitinib at 45 mg/kg or vehicle was orally administered twice daily for 15 days, as well as anti-PSGL-1 15A7H antibody at 10 mg/kg or vehicle was intravenously administered every 3 to 4 days for total 5 doses. Mice were assessed for survival daily. The time of the treatment initiated was designated as Day 1.

activated T cells [2] = assay: Fixed-ratio combination cytotoxicity assay, ruxolitinib + 15A7H (Chou-Talalay, Calcusyn); type: cell-based, human; settings: for EC50: Homo sapiens, T-cell; for DRIRUXO (Dose-Reduction Index): EC50 level
Description: T cell stimulation was achieved through Phytohemagglutinin-L (PHA) treatment prior to the apoptosis assays described below. In brief, human blood samples used in the study were obtained from heathy human donors. […] The buffy coat layer containing mononuclear cells was collected and washed 3 times with phosphate-buffered saline (PBS) to minimize platelet contamination.
Activated T cells were seeded in 96-well plates at 1-1.5×10^5 cells/mL and were treated with ruxolitinib and antibody 15A7H alone, or in combination at fixed concentration ratios. For the combination of ruxolitinib and antibody 15A7H, fixed ratios at 3.3:1 and 1.1:1 were tested on T cells from four donors. In addition, a fixed ratio of ruxolitinib and antibody 15A7H of 0.37:1 was tested on T cells from two donors.
Cell apoptosis was measured using an Annexin-V FITC Apoptosis Detection Kit (Strong Biotech, AVK250), according to the manufacturer's instructions.
Results were expressed as apoptosis fractions (fraction affected), based on the measured fluorescence counts of treated samples, compared with that of untreated controls. Seven diagonals representing various dose-effect curves with fixed drug ratios were used to measure the combination indexes (CI) for each of the combinations with Calcusyn software (Biosoft). The combinatorial effect was defined as “synergistic”, “additive” or “antagonistic” when CI was <1, 1 and >1, respectively.

activated T cells [3] = assay: T cell apoptosis assay (Annexin V/PI FACS), 15A7H and/or ruxolitinib; type: cell-based, human; settings: ruxolitinib alone, 0.122-10 μM, 48 hours
Description: T cell stimulation was achieved through Phytohemagglutinin-L (PHA) treatment prior to the apoptosis assays described below. In brief, human blood samples used in the study were obtained from heathy human donors. Peripheral blood mononuclear cells (PBMCs) were freshly isolated from whole blood by Ficoll-Hypaque gradient centrifugation (Ficoll-Paque PLUS, GE Healthcare, Cat #17-1440-03) at 2400 revolutions per minute (rpm) for 15 minutes at room temperature. The buffy coat layer containing mononuclear cells was collected and washed 3 times with phosphate-buffered saline (PBS) to minimize platelet contamination. […]
Fluorescence-activated cell sorting (FACS) analysis using the Annexin V/propidium iodide (PI) staining method was used to determine the apoptotic rate in drug- and control-treated cells. […]
Samples were run on a flow cytometer (BD LSR scanner; BD Biosciences, San Diego), and cell viability and apoptosis were calculated using a quadrant on the Annexin-V-FITC/PI histogram. Living cells were identified as those negatively stained for both fluorescence dyes, early apoptotic cells were identified as those only Annexin-V-FITC-positive, necrotic cells were identified as those only PI-positive, and late apoptotic cells were identified as those positively stained for both fluorescence dyes. […]

activated T cells [4] = assay: Fixed-ratio combination cytotoxicity assay, ruxolitinib + LH10, c43B6 or h9F9; type: cell-based; settings: antibody with cross-linker
Description: PBMCs were obtained from peripheral blood of healthy donors. Isolation was performed by density centrifugation of blood on Ficoll (GE Healthcare, Cat #17-1440-03). The harvested PBMCs were used for the generation of activated T cells by incubating with PHA (3 μg/mL, SIGMA, Cat: L2769-10 mg) in RPMI-1640 medium (10% FBS, 1% Penicillin/Streptomycin and 2-Mercaptoethanol) for 2 days, followed by maintenance in medium containing recombinant human Interleukin-2 (5 ng/mL, R&D Systems, Cat. #202-IL-050) for an additional between about 4˜6 days.
In addition to 15A7H, anti-PSGL-1 antibodies LH10, c43B6 and h9F9 were tested for the ability to induce cell death in activated T cells. The purpose of this study was to determine whether apoptosis inducing anti-PSGL-1 antibodies plus ruxolitinib would result in a better cytotoxic effect on activated T cells. The combinatorial effect was evaluated using Chou-Talalay median effect analysis using fixed ratios of antibodies and ruxolitinib in cytotoxicity assays. […]
Cell apoptosis was determined as described in Example 1, and the combinatorial drug effect combination indexes (CI) were analyzed using CalcuSyn (Biosoft, Ferguson, MO, USA), which allows automated simulation of synergism or antagonism, where CI<1 indicates synergy, CI=1 indicates additivity, and CI>1 indicates antagonism.

In the case of `N#CC[C@H](C1CCCC1)n1cc(-c2ncnc3[nH]ccc23)cn1` [RUXO, (R)-3-(4-(7H-pyrrolo[2,3-d]pyrimidin-4-yl)-1 H-pyrazol-1-yl)-3-cyclopentylpropanenitrile], the “effect on xenogeneic GVHD induced by human lymphocytes” value [1] is reported as “ameliorated xenogeneic GVHD”, the EC50 (activated T cells [2]; donor N084, RUXO + 15A7H, ratio 1.1:1, read-out: EC50RUXO Combination Treatment) is reported as 201 nM and the EC50 (activated T cells [2]; donor N084, RUXO + 15A7H, ratio 3.3:1, read-out: EC50RUXO Combination Treatment) is reported as 373 nM. The EC50 (activated T cells [2]; donor N084, RUXO alone, section ratio 1.1:1, read-out: EC50RUXO Single Treatment) was 4220 nM, the EC50 (activated T cells [2]; donor N084, RUXO alone, section ratio 3.3:1, read-out: EC50RUXO Single Treatment) was 4220 nM and the EC50 (activated T cells [2]; donor N089, RUXO + 15A7H, ratio 1.1:1, read-out: EC50RUXO Combination Treatment) was 394 nM. It also gave an EC50 (activated T cells [2]; donor N089, RUXO + 15A7H, ratio 3.3:1, read-out: EC50RUXO Combination Treatment) of 479 nM, an EC50 (activated T cells [2]; donor N089, RUXO alone, section ratio 1.1:1, read-out: EC50RUXO Single Treatment) of 2360 nM and an EC50 (activated T cells [2]; donor N089, RUXO alone, section ratio 3.3:1, read-out: EC50RUXO Single Treatment) of 2000 nM. For the same molecule, the EC50 (activated T cells [2]; donor N102, RUXO + 15A7H, ratio 0.37:1, read-out: EC50RUXO Combination Treatment) was 165 nM, the EC50 (activated T cells [2]; donor N102, RUXO + 15A7H, ratio 1.1:1, read-out: EC50RUXO Combination Treatment) was 499 nM and the EC50 (activated T cells [2]; donor N102, RUXO + 15A7H, ratio 3.3:1, read-out: EC50RUXO Combination Treatment) was 1150 nM. The EC50 (activated T cells [2]; donor N102, RUXO alone, section ratio 0.37:1, read-out: EC50RUXO Single Treatment) was 10100 nM, the EC50 (activated T cells [2]; donor N102, RUXO alone, section ratio 1.1:1, read-out: EC50RUXO Single Treatment) was 10100 nM and the EC50 (activated T cells [2]; donor N102, RUXO alone, section ratio 3.3:1, read-out: EC50RUXO Single Treatment) was 10100 nM. The EC50 (activated T cells [2]; donor N103, RUXO + 15A7H, ratio 0.37:1, read-out: EC50RUXO Combination Treatment) was 266 nM, the EC50 (activated T cells [2]; donor N103, RUXO + 15A7H, ratio 1.1:1, read-out: EC50RUXO Combination Treatment) was 554 nM and the EC50 (activated T cells [2]; donor N103, RUXO + 15A7H, ratio 3.3:1, read-out: EC50RUXO Combination Treatment) was 1010 nM. It also gave an EC50 (activated T cells [2]; donor N103, RUXO alone, section ratio 0.37:1, read-out: EC50RUXO Single Treatment) of 9170 nM, an EC50 (activated T cells [2]; donor N103, RUXO alone, section ratio 1.1:1, read-out: EC50RUXO Single Treatment) of 9170 nM and an EC50 (activated T cells [2]; donor N103, RUXO alone, section ratio 3.3:1, read-out: EC50RUXO Single Treatment) of 9170 nM. The “DRIRUXO (Dose-Reduction Index)” value (activated T cells [2]; donor N084, RUXO + 15A7H, ratio 1.1:1) was 20.9884, the “DRIRUXO (Dose-Reduction Index)” value (activated T cells [2]; donor N084, RUXO + 15A7H, ratio 3.3:1) was 11.3242 and the “DRIRUXO (Dose-Reduction Index)” value (activated T cells [2]; donor N089, RUXO + 15A7H, ratio 1.1:1) was 6.0012. The “DRIRUXO (Dose-Reduction Index)” value (activated T cells [2]; donor N089, RUXO + 15A7H, ratio 3.3:1) was 4.1685, the “DRIRUXO (Dose-Reduction Index)” value (activated T cells [2]; donor N102, RUXO + 15A7H, ratio 0.37:1) was 61.2797 and the “DRIRUXO (Dose-Reduction Index)” value (activated T cells [2]; donor N102, RUXO + 15A7H, ratio 1.1:1) was 20.2269. For the same molecule, the “DRIRUXO (Dose-Reduction Index)” value (activated T cells [2]; donor N102, RUXO + 15A7H, ratio 3.3:1) was 8.7676, the “DRIRUXO (Dose-Reduction Index)” value (activated T cells [2]; donor N103, RUXO + 15A7H, ratio 0.37:1) was 34.4195 and the “DRIRUXO (Dose-Reduction Index)” value (activated T cells [2]; donor N103, RUXO + 15A7H, ratio 1.1:1) was 16.5574. For the same molecule, the “DRIRUXO (Dose-Reduction Index)” value (activated T cells [2]; donor N103, RUXO + 15A7H, ratio 3.3:1) was 9.0902 and the “increase in apoptosis over background levels” value (activated T cells [3]) was “minimal or no increases in apoptosis over background levels”.

B1: h9F9: anti-PSGL-1 antibody; heavy chain SEQ ID NO:35, light chain SEQ ID NO:39 (antibody)
heavy: EVQLVESGGGLVQPGGSLKLSCAASGFTFNTNAMNWVRQAPGKGLEWVARIRSKSNNYATYYADSVKDRFTISRDDSKSIIYLQMNSLKTEDTGIYYCVRGGSYWYFDVWGTGTTVTVSSASTKGPSVFPLAPCSRSTSESTAALGCLVKDYFPEPVTVSWNSGALTSGVHTFPAVLQSSGLYSLSSVVTVPSSSLGTKTYTCNVDHKPSNTKVDKRVESKYGPPCPPCPAPPVAGGPSVFLFPPKPKDTLMISRTPEVTCVVVDVSQEDPEVQFNWYVDGVEVHNAKTKPREEQFNSTYRVVSVLTVLHQDWLNGKEYKCKVSNKGLPSSIEKTISKAKGQPREPQVYTLPPSQEEMTKNQVSLTCLVKGFYPSDIAVEWESNGQPENNYKTTPPVLDSDGSFFLYSRLTVDKSRWQEGNVFSCSVMHEALHNHYTQKSLSLSLG
light: DVIMTQSPLSLPVSLGQPASISCRSSQSIVNSNGNTYLEWYLQKPGQSPRLLIYKVSNRFSGVPDRFSGSGSGTDFTLKISRVEAEDVGVYYCFQGSHVPWTFGGGTKLEIKRTVAAPSVFIFPPSDEQLKSGTASVVCLLNNFYPREAKVQWKVDNALQSGNSQESVTEQDSKDSTYSLSSTLTLSKADYEKHKVYACEVTHQGLSSPVTKSFNRGEC
B1 was tested, and the “cytotoxicity ability in activated T cells” value (activated T cells [4]) was “had cytotoxicity ability”.
